Experimental data published in PubChem BioAssay AID192 (DTP/NCI, 2004).
Several values for one entry are separate records, joined by “and”; a condition that tells them apart may be missing. Equal values may be shown once. Inconclusive results and toxic doses are left out. How the source made its calls: active means survival T/C of 150% or more; inactive means T/C below 125% in these data.

Tested on: BDF1 mice, B16 melanoma ip, median survival T/C
Test: NCI In Vivo Anticancer Drug Screen. Data for tumor model B16 Melanoma (intraperitoneal) in B6D2F1 (BDF1) mice
Details: endpoint: median survival time, higher = longer survival
Method in brief: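 The ratio T/C compares compound-treated mice with vehicle-treated controls, using survival or tumor size as the endpoint in a transplantable tumor model.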

[1] = dose: 12.5 mg/kg/injection, schedule: Q01DX009 (ip), vehicle: saline with Tween-80
[2] = dose: 25.0 mg/kg/injection, schedule: Q01DX009 (ip), vehicle: saline with Tween-80
[3] = dose: 50.0 mg/kg/injection, schedule: Q01DX009 (ip), vehicle: saline with Tween-80
[4] = dose: 100.0 mg/kg/injection, schedule: Q04DX003 (ip), vehicle: saline with Tween-80
[5] = dose: 200.0 mg/kg/injection, schedule: Q04DX003 (ip), vehicle: saline with Tween-80
[6] = dose: 6.25 mg/kg/injection, schedule: Q01DX009 (ip), vehicle: saline
[7] = dose: 12.5 mg/kg/injection, schedule: Q01DX009 (ip), vehicle: saline
[8] = dose: 25.0 mg/kg/injection, schedule: Q01DX009 (ip), vehicle: saline
[9] = dose: 50.0 mg/kg/injection, schedule: Q01DX009 (ip), vehicle: saline
[10] = dose: 1.56 mg/kg/injection, schedule: Q01DX009 (ip), vehicle: saline with Tween-80
[11] = dose: 6.25 mg/kg/injection, schedule: Q01DX009 (ip), vehicle: saline with Tween-80
[12] = dose: 50.0 mg/kg/injection, schedule: Q01DX009 (ip), vehicle: Klucel (hydroxypropylcellulose) (HPC)
[13] = dose: 100.0 mg/kg/injection, schedule: Q01DX009 (ip), vehicle: Klucel (hydroxypropylcellulose) (HPC)
[14] = dose: 100.0 mg/kg/injection, schedule: Q01DX009 (ip), vehicle: saline with Tween-80
[15] = dose: 200.0 mg/kg/injection, schedule: Q01DX009 (ip), vehicle: saline with Tween-80

Measured: T/C

COc1ccc(C2CCC(=O)CC2C(=O)O)cc1 (stereo not drawn)
inactive: dose: 100.0 mg/kg/injection, schedule: Q04DX003 (ip), vehicle: Klucel (hydroxypropylcellulose) (HPC) 94 % of control | dose: 400.0 mg/kg/injection, schedule: Q04DX003 (ip), vehicle: Klucel (hydroxypropylcellulose) (HPC) 100 % of control

CCC12C=CCN3CCC4(c5cc(C(c6cccnc6)c6cc7ccccc7n6C)c(OC)cc5N(C)C4C(O)(C(=O)OC)C1OC(C)=O)C32 (stereo not drawn)
inactive: dose: 0.06 mg/kg/injection, schedule: Q01DX009 (ip), vehicle: water 109 % of control | dose: 0.13 mg/kg/injection, schedule: Q01DX009 (ip), vehicle: water 103 % of control | dose: 0.25 mg/kg/injection, schedule: Q01DX009 (ip), vehicle: water 100 % of control | dose: 0.5 mg/kg/injection, schedule: Q01DX009 (ip), vehicle: water 113 % of control | dose: 1.0 mg/kg/injection, schedule: Q01DX009 (ip), vehicle: water 110 % of control | dose: 2.0 mg/kg/injection, schedule: Q01DX009 (ip), vehicle: other 104 % of control | dose: 2.0 mg/kg/injection, schedule: Q01DX009 (ip), vehicle: water 107 % of control | dose: 4.0 mg/kg/injection, schedule: Q01DX009 (ip), vehicle: other 95 % of control | dose: 8.0 mg/kg/injection, schedule: Q01DX009 (ip), vehicle: other 101 % of control | dose: 16.0 mg/kg/injection, schedule: Q01DX009 (ip), vehicle: other 105 % of control | dose: 32.0 mg/kg/injection, schedule: Q01DX009 (ip), vehicle: other 106 % of control

NC(=O)NNc1ccc([N+](=O)[O-])cc1[N+](=O)[O-]
inactive: [1] 95 % of control | [2] 97 % of control | [3] 97 % of control

CCc1occ(C(=O)OC)c1C(=O)OC
inactive: [4] 102 % of control | [5] 97 % of control | dose: 400.0 mg/kg/injection, schedule: Q04DX003 (ip), vehicle: saline with Tween-80 95 % of control

C/C=C(\C)C(=O)OC1CC[N+]2([O-])CCC(COC(=O)/C(=C/C)CO)C12 (stereo not drawn)
inactive: dose: 18.8 mg/kg/injection, schedule: Q01DX009 (ip), vehicle: saline 102 % of control | dose: 37.5 mg/kg/injection, schedule: Q01DX009 (ip), vehicle: saline 109 % of control | dose: 75.0 mg/kg/injection, schedule: Q01DX009 (ip), vehicle: saline 107 % of control | dose: 150.0 mg/kg/injection, schedule: Q01DX009 (ip), vehicle: saline 107 % of control

O=C(O)C1C2CCC1C2 (stereo not drawn)
inactive: dose: 25.0 mg/kg/injection, schedule: Q04DX003 (ip), vehicle: saline with Tween-80 103 % of control | dose: 50.0 mg/kg/injection, schedule: Q04DX003 (ip), vehicle: saline with Tween-80 102 % of control | [4] 97 % of control and 102 % of control

CCN(CC)CCSC(=S)N1c2ccccc2Sc2ccccc21
inactive: dose: 1.09 mg/kg/injection, schedule: Q01DX009 (ip), vehicle: Klucel (hydroxypropylcellulose) (HPC) 109 % of control | dose: 2.18 mg/kg/injection, schedule: Q01DX009 (ip), vehicle: Klucel (hydroxypropylcellulose) (HPC) 105 % of control | dose: 4.37 mg/kg/injection, schedule: Q01DX009 (ip), vehicle: Klucel (hydroxypropylcellulose) (HPC) 107 % of control | dose: 8.75 mg/kg/injection, schedule: Q01DX009 (ip), vehicle: Klucel (hydroxypropylcellulose) (HPC) 111 % of control | dose: 17.5 mg/kg/injection, schedule: Q01DX009 (ip), vehicle: Klucel (hydroxypropylcellulose) (HPC) 100 % of control

CC(N)C(O)c1cccc(O)c1 (stereo not drawn)
inactive: [6] 94 % of control | [7] 102 % of control | [8] 105 % of control | [9] 100 % of control

On1cnc(=S)c2[nH]cnc21
inactive: dose: 100.0 mg/kg/injection, schedule: Q01DX009 (ip), vehicle: saline sonified 106 % of control | dose: 200.0 mg/kg/injection, schedule: Q01DX009 (ip), vehicle: saline sonified 104 % of control | dose: 400.0 mg/kg/injection, schedule: Q01DX009 (ip), vehicle: saline sonified 90 % of control

O=C(C=C(C(F)(F)F)C(F)(F)F)c1cccc(S(=O)(=O)F)c1
inactive: [10] 86 % of control | dose: 3.13 mg/kg/injection, schedule: Q01DX009 (ip), vehicle: saline with Tween-80 93 % of control | [11] 89 % of control | dose: 8.0 mg/kg/injection, schedule: Q04DX003 (ip), vehicle: saline 105 % of control | dose: 12.0 mg/kg/injection, schedule: Q04DX003 (ip), vehicle: saline 105 % of control | dose: 18.0 mg/kg/injection, schedule: Q04DX003 (ip), vehicle: saline 110 % of control

C=C(C)C(=O)OC1C/C(CO)=C\C(O)C/C(C)=C/C2OC(=O)C(=C)C21 (stereo not drawn)
inactive: dose: 1.25 mg/kg/injection, schedule: Q01DX009 (ip), vehicle: saline + alcohol 110 % of control | dose: 2.5 mg/kg/injection, schedule: Q01DX009 (ip), vehicle: saline + alcohol 90 % of control | dose: 5.0 mg/kg/injection, schedule: Q01DX009 (ip), vehicle: saline + alcohol 92 % of control | dose: 10.0 mg/kg/injection, schedule: Q01DX009 (ip), vehicle: saline + alcohol 100 % of control | dose: 20.0 mg/kg/injection, schedule: Q01DX009 (ip), vehicle: saline + alcohol 91 % of control | dose: 40.0 mg/kg/injection, schedule: Q01DX009 (ip), vehicle: saline + alcohol 95 % of control

CNCCCC1c2ccccc2C=Cc2ccccc21
inactive: dose: 1.56 mg/kg/injection, schedule: Q01DX009 (ip), vehicle: saline 106 % of control | dose: 3.12 mg/kg/injection, schedule: Q01DX009 (ip), vehicle: saline 118 % of control | [6] 103 % of control | [7] 112 % of control | [8] 109 % of control

Nc1nc(SCc2ccccc2)c2[nH]cnc2n1
inactive: dose: 3.13 mg/kg/injection, schedule: Q01DX009 (ip), vehicle: saline sonified 95 % of control | dose: 6.25 mg/kg/injection, schedule: Q01DX009 (ip), vehicle: saline sonified 100 % of control | dose: 12.5 mg/kg/injection, schedule: Q01DX009 (ip), vehicle: saline sonified 93 % of control | dose: 25.0 mg/kg/injection, schedule: Q01DX009 (ip), vehicle: saline sonified 97 % of control

OC(CC(O)(C(F)(F)F)C(F)(F)F)CC(O)(C(F)(F)F)C(F)(F)F
inactive: [11] 114 % of control | dose: 6.25 mg/kg/injection, schedule: Q04DX003 (ip), vehicle: saline 92 % of control | [1] 97 % of control | dose: 12.5 mg/kg/injection, schedule: Q04DX003 (ip), vehicle: saline 97 % of control | [2] 108 % of control | dose: 25.0 mg/kg/injection, schedule: Q04DX003 (ip), vehicle: saline 105 % of control

CC(C)C(N)C(=O)Nc1nncs1 (stereo not drawn)
inactive: [7] 103 % of control | [8] 114 % of control | [9] 108 % of control | dose: 100.0 mg/kg/injection, schedule: Q01DX009 (ip), vehicle: saline 102 % of control

C1=CC2(OCCO2)C2CC=CC3(OCCO3)C2C1 (stereo not drawn)
inactive: [12] 104 % of control | [13] 97 % of control

O=[N+]([O-])c1ccc(NCCO)c([N+](=O)[O-])c1
inactive: [3] 100 % of control | [14] 100 % of control | [4] 94 % of control | [15] 92 % of control | [5] 89 % of control

N#Cc1ccc(C(=O)C=C(C(F)(F)F)C(F)(F)F)cc1
inactive: [10] 99 % of control | dose: 3.12 mg/kg/injection, schedule: Q01DX009 (ip), vehicle: saline with Tween-80 100 % of control | [11] 99 % of control | [1] 93 % of control

CNc1ccc(O)cc1
inactive: [11] 92 % of control | [1] 92 % of control | [2] 95 % of control

C[C@]12CC[C@H](O)C[C@@H]1CC[C@@H]1[C@@H]2C(=O)C[C@@]2(C)[C@H]1CC[C@]2(O)C(=O)CBr
inactive: [12] 90 % of control | [3] 100 % of control | [13] 93 % of control | [14] 94 % of control | [15] 91 % of control
